Earlier results, collected in US20260232602A1, “DRUG DELIVERY SYSTEMS AND METHODS COMPRISING POLYSIALIC ACID AND/OR OTHER POLYMERS” (Universidade de Santiago de Compostela, priority 2017, published 2026).

Settings: stated with the drug's Mw and supplier

Row | SMILES | Log P
1 | CC(=O)O[C@@]12CO[C@@H]1C[C@H](O)[C@@]1(C)C(=O)[C@H](O)C3=C(C)[C@@H](OC(=O)[C@H](O)[C@@H](NC(=O)OC(C)(C)C)c4ccccc4)C[C@@](O)([C@@H](OC(=O)c4ccccc4)[C@H]21)C3(C)C [docetaxel] | 2.6
2 | C/C(=C\c1csc(C)n1)[C@@H]1C[C@@H]2O[C@]2(C)CCC[C@H](C)[C@H](O)[C@@H](C)C(=O)C(C)(C)[C@@H](O)CC(=O)O1 [patupilone] | 3.7
